Experimental data taken from ChEMBL document CHEMBL1201862, “PubChem BioAssay data set” (2004).
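1) Cells in 96-well plates. 2) Compound, 48 h, 5 concentrations. 3) Linear interpolation between surrounding doses. 4) Unreached endpoint = highest concentration. The concentration for 50% growth inhibition is given as GI50.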 The source made the active and inactive calls. Rule as the data show it: active = GI50 up to about 1.1 µM and inactive = higher.

Key:
Assay in all cases: growth of human tumour cells (NCI), 48 h
[1] = system: A549
[2] = system: ACHN
[3] = system: COLO 205
[4] = system: HCT-116
[5] = system: HL-60
[6] = system: K562
[7] = system: KM12
[8] = system: LOX IMVI
[9] = system: Malme-3M
[10] = system: NCI-H460
[11] = system: OVCAR-5
[12] = system: SK-MEL-28
[13] = system: SK-MEL-2
[14] = system: SK-MEL-5
[15] = system: SK-OV-3
[16] = system: UACC-257
[17] = system: UACC-62
[18] = system: UO-31
[19] = system: HOP-92

SMILES	GI50 [1]	GI50 [2]	GI50 [3]	GI50 [4]	GI50 [5]	GI50 [6]	GI50 [7]	GI50 [8]	GI50 [9]	GI50 [10]	GI50 [11]	GI50 [12]	GI50 [13]	GI50 [14]	GI50 [15]	GI50 [16]	GI50 [17]	GI50 [18]	GI50 [19]
CC(=O)Oc1c(C)n(CCCl)ccc1=O	> 100 µM (inactive)	69.3 µM (inactive)	> 100 µM (inactive)	> 100 µM (inactive)	> 100 µM (inactive)	> 100 µM (inactive)	> 100 µM (inactive)	> 100 µM (inactive)	> 100 µM (inactive)	44.6 µM (inactive)	56.6 µM (inactive)	> 100 µM (inactive)	> 100 µM (inactive)	> 100 µM (inactive)	> 100 µM (inactive)	> 100 µM (inactive)	> 100 µM (inactive)	59.2 µM (inactive)	–
CCN(CC)CC(C)C(=O)/C=C/c1ccc(C)cc1 (stereo not given)	3.77 µM (inactive)	2.06 µM (inactive)	1.55 µM (inactive)	1.73 µM (inactive)	3.48 µM (inactive)	3.24 µM (inactive)	0.502 µM (active)	1.29 µM (inactive)	2.81 µM (inactive)	4.83 µM (inactive)	14.8 µM (inactive)	1.85 µM (inactive)	–	5.02 µM (inactive)	17 µM (inactive)	2.23 µM (inactive)	3.3 µM (inactive)	13.5 µM (inactive)	2.32 µM (inactive)
Nc1ccc(C(=O)N/C(=C\C=C\c2ccco2)c2nc3c(O)nc(S)nc3[nH]2)cc1	> 100 µM (inactive)	> 100 µM (inactive)	> 100 µM (inactive)	–	–	> 100 µM (inactive)	> 100 µM (inactive)	–	> 100 µM (inactive)	–	> 100 µM (inactive)	> 100 µM (inactive)	> 100 µM (inactive)	> 100 µM (inactive)	> 100 µM (inactive)	–	> 10 µM (inactive)	> 100 µM (inactive)	> 100 µM (inactive)
COC(=O)[C@@H](O)[C@]1(C(=O)OC)C2O[C@@H](OC)[C@@H]1CCCCCC[C@H]2O	> 100 µM (inactive)	> 100 µM (inactive)	> 100 µM (inactive)	> 100 µM (inactive)	–	> 100 µM (inactive)	> 100 µM (inactive)	> 100 µM (inactive)	> 100 µM (inactive)	> 100 µM (inactive)	> 100 µM (inactive)	> 100 µM (inactive)	51.5 µM (inactive)	> 100 µM (inactive)	> 100 µM (inactive)	> 100 µM (inactive)	> 100 µM (inactive)	> 100 µM (inactive)	–
COc1cc(C=O)cc(O)c1O	> 100 µM (inactive)	> 100 µM (inactive)	> 100 µM (inactive)	> 100 µM (inactive)	46.7 µM (inactive)	> 100 µM (inactive)	> 100 µM (inactive)	> 100 µM (inactive)	> 100 µM (inactive)	76.6 µM (inactive)	–	> 100 µM (inactive)	–	–	> 100 µM (inactive)	> 100 µM (inactive)	27.4 µM (inactive)	> 100 µM (inactive)	–
COc1ccc(C(=O)O)c(Br)c1OCc1ccccc1	> 100 µM (inactive)	> 100 µM (inactive)	> 100 µM (inactive)	> 100 µM (inactive)	> 100 µM (inactive)	> 100 µM (inactive)	> 100 µM (inactive)	> 100 µM (inactive)	–	> 100 µM (inactive)	> 100 µM (inactive)	> 100 µM (inactive)	> 100 µM (inactive)	> 100 µM (inactive)	> 100 µM (inactive)	–	> 100 µM (inactive)	88.3 µM (inactive)	> 100 µM (inactive)
CC#C[C@@]1(O)CCCCC1O (stereo not given in full)	> 100 µM (inactive)	> 100 µM (inactive)	> 100 µM (inactive)	> 100 µM (inactive)	> 100 µM (inactive)	> 100 µM (inactive)	> 100 µM (inactive)	> 100 µM (inactive)	> 100 µM (inactive)	> 100 µM (inactive)	–	> 100 µM (inactive)	> 100 µM (inactive)	> 100 µM (inactive)	> 100 µM (inactive)	> 100 µM (inactive)	> 100 µM (inactive)	> 100 µM (inactive)	> 100 µM (inactive)
C1CNCCNCCNCCN1	> 100 µM (inactive)	> 100 µM (inactive)	37.5 µM (inactive)	50.1 µM (inactive)	62.7 µM (inactive)	70.5 µM (inactive)	> 100 µM (inactive)	> 100 µM (inactive)	> 100 µM (inactive)	35.8 µM (inactive)	> 100 µM (inactive)	> 100 µM (inactive)	> 100 µM (inactive)	> 100 µM (inactive)	> 100 µM (inactive)	> 100 µM (inactive)	> 100 µM (inactive)	> 100 µM (inactive)	–
CC1=CC(/C=C(\C)CCCc2ccoc2)C2(OC(=O)C(C)=C2O)[C@H]2C1CC[C@@H]2C (stereo not given in full)	23.4 µM (inactive)	19.8 µM (inactive)	21.9 µM (inactive)	15.6 µM (inactive)	–	24.7 µM (inactive)	31.8 µM (inactive)	21.8 µM (inactive)	26.6 µM (inactive)	–	–	27.6 µM (inactive)	–	20.3 µM (inactive)	26.2 µM (inactive)	29.5 µM (inactive)	14.4 µM (inactive)	16.5 µM (inactive)	17.9 µM (inactive)
Cc1ccc2c(c1)C1(C)OC(CC(N)C1O)O2 (stereo not given)	> 100 µM (inactive)	> 100 µM (inactive)	> 100 µM (inactive)	> 100 µM (inactive)	> 100 µM (inactive)	> 100 µM (inactive)	> 100 µM (inactive)	> 100 µM (inactive)	> 100 µM (inactive)	> 100 µM (inactive)	–	> 100 µM (inactive)	> 100 µM (inactive)	> 100 µM (inactive)	> 100 µM (inactive)	> 100 µM (inactive)	> 100 µM (inactive)	> 100 µM (inactive)	–
COc1ccc2ccc([Se]c3ccc4ccc(OC)cc4c3)cc2c1	> 100 µM (inactive)	29.2 µM (inactive)	> 100 µM (inactive)	58.1 µM (inactive)	> 100 µM (inactive)	> 100 µM (inactive)	51.9 µM (inactive)	> 100 µM (inactive)	> 100 µM (inactive)	89.1 µM (inactive)	–	> 100 µM (inactive)	> 100 µM (inactive)	> 100 µM (inactive)	> 100 µM (inactive)	> 100 µM (inactive)	> 100 µM (inactive)	23.7 µM (inactive)	> 100 µM (inactive)
c1cc(C[S+]2CCCC2)oc1C[S+]1CCCC1	> 100 µM (inactive)	> 100 µM (inactive)	> 100 µM (inactive)	> 100 µM (inactive)	–	> 100 µM (inactive)	–	> 100 µM (inactive)	> 100 µM (inactive)	> 100 µM (inactive)	–	> 100 µM (inactive)	–	> 100 µM (inactive)	> 100 µM (inactive)	> 100 µM (inactive)	> 100 µM (inactive)	> 100 µM (inactive)	–
O=C1COc2cc3c(cc2N1)SCCC(=O)N3	> 100 µM (inactive)	–	> 100 µM (inactive)	> 100 µM (inactive)	> 100 µM (inactive)	> 100 µM (inactive)	> 100 µM (inactive)	–	> 100 µM (inactive)	–	–	> 100 µM (inactive)	> 100 µM (inactive)	> 100 µM (inactive)	> 100 µM (inactive)	> 100 µM (inactive)	> 100 µM (inactive)	> 100 µM (inactive)	> 100 µM (inactive)
COC1CC(OS(=O)(=O)c2ccc(C)cc2)C(OS(=O)(=O)c2ccc(C)cc2)C(COS(=O)(=O)c2ccc(C)cc2)O1 (stereo not given)	5.9 µM (inactive)	2.9 µM (inactive)	37.9 µM (inactive)	14.5 µM (inactive)	30.1 µM (inactive)	23.9 µM (inactive)	52 µM (inactive)	–	2.39 µM (inactive)	4.3 µM (inactive)	11.3 µM (inactive)	2.98 µM (inactive)	6.85 µM (inactive)	4.85 µM (inactive)	3.01 µM (inactive)	8.89 µM (inactive)	5.61 µM (inactive)	3.76 µM (inactive)	–
COC(=O)Nc1nc2cc(Oc3ccc4nc(NC(=O)OC)[nH]c4c3)ccc2[nH]1	2.25 µM (inactive)	–	0.708 µM (active)	0.438 µM (active)	0.608 µM (active)	0.942 µM (active)	0.376 µM (active)	2.01 µM (inactive)	0.61 µM (active)	1.36 µM (inactive)	9.02 µM (inactive)	0.713 µM (active)	1.34 µM (inactive)	0.687 µM (active)	1.45 µM (inactive)	–	–	11.9 µM (inactive)	6.56 µM (inactive)
COC(=O)C(C#CCCCCC#CC(NC(=O)OCc1ccccc1)(C(=O)OC)C(F)(F)F)(NC(=O)OCc1ccccc1)C(F)(F)F (stereo not given)	73.6 µM (inactive)	> 100 µM (inactive)	> 100 µM (inactive)	97.9 µM (inactive)	> 100 µM (inactive)	8.38 µM (inactive)	> 100 µM (inactive)	> 100 µM (inactive)	> 100 µM (inactive)	> 100 µM (inactive)	> 100 µM (inactive)	> 100 µM (inactive)	–	> 100 µM (inactive)	> 100 µM (inactive)	> 100 µM (inactive)	> 100 µM (inactive)	7.45 µM (inactive)	> 100 µM (inactive)
